pIC50: −log10 of the molar value. The source made the active and inactive calls. The calls are words filed in the database; no cut-off is given here.
What was measured:
Prothrombin [1] = target: T1, Prothrombin (Homo sapiens, UniProt P00734); experiment: Inhibition of thrombin (unknown origin) assessed as chromogenic substrate using CS-10(38) as substrate at 1 mM incubated for 1 hr by spectrophotometer based microplate reader method
Coagulation factor XI [2] = target: T2, Coagulation factor XI (Homo sapiens, UniProt P03951); experiment: Inhibition of coagulation factor XIa (unknown origin) assessed as chromogenic substrate hydrolysis using CS-21(66) as substrate incubated for 1 hr by spectrophotometer based microplate reader method
Plasma kallikrein = Plasma kallikrein (Homo sapiens, UniProt P03952); experiment: Inhibition of plasma kallikrein (unknown origin) assessed as chromogenic substrate hydrolysis using CS-31(02) as substrate incubated for 1 hr by spectrophotometer based microplate reader method
Homo sapiens [3] = species: Homo sapiens; experiment: Selectivity index, ratio of IC50 for plasma kallikrein (unknown origin) to IC50 for coagulation factor XIa (unknown origin)
Coagulation factor X = Coagulation factor X (Homo sapiens, UniProt P00742); experiment: Inhibition of coagulation factor Xa (unknown origin) assessed as chromogenic substrate using CS-11(22) as substrate incubated for 1 hr by spectrophotometer based microplate reader method
[4] = target: T3, Coagulation factor XII (Homo sapiens) (UniProt P00748); experiment: Inhibition of coagulation factor XIIa (unknown origin) assessed as chromogenic substrate using TH5253 as substrate at 1 mM incubated for 1 hr by spectrophotometer based microplate reader method
T3 sequence (whole entry): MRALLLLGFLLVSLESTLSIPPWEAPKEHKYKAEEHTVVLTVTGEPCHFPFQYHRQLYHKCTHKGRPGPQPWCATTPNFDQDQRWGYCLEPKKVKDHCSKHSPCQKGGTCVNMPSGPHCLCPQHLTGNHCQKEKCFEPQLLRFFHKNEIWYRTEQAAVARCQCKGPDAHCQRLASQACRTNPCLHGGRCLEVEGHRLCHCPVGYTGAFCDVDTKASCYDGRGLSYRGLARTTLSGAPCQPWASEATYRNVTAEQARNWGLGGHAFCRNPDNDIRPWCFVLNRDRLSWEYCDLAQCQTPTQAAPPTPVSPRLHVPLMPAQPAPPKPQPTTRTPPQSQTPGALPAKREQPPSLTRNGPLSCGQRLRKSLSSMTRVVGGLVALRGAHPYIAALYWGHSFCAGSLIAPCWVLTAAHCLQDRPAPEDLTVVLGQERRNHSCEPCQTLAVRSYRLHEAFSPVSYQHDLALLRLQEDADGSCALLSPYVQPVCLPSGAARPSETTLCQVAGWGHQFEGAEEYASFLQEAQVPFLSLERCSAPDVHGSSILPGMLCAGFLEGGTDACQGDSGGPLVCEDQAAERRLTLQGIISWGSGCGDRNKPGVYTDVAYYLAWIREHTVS

[5] = target: Coagulation factor IX (Homo sapiens) (UniProt P00740); experiment: Inhibition of coagulation factor IXa (unknown origin) assessed as chromogenic substrate using ADG299 as substrate at 1 mM incubated for 1 hr by spectrophotometer based microplate reader method
[6] = target: T4, Coagulation factor VII (Homo sapiens) (UniProt P08709); experiment: Inhibition of coagulation factor VIIa (unknown origin) assessed as chromogenic substrate using chromozyme t-PA as substrate at 1 mM incubated for 1 hr by spectrophotometer based microplate reader method
T4 sequence (whole entry): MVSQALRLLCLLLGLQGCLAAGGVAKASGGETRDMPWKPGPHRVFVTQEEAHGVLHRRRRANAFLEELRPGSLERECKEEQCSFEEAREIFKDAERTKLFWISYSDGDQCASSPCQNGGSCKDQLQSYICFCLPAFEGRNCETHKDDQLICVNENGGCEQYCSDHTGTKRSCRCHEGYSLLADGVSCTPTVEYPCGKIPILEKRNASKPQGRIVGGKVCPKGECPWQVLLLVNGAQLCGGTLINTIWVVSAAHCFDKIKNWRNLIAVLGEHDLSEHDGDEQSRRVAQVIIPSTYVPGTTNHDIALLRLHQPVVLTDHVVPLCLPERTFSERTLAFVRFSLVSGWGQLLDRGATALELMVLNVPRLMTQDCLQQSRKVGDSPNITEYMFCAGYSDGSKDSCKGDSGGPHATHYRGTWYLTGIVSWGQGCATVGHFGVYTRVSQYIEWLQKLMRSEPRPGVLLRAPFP

[7] = target: Serine protease 1 (Homo sapiens) (UniProt P07477); experiment: Inhibition of trypsin (unknown origin) assessed as chromogenic substrate using CS-11(22) as substrate at 1 mM incubated for 1 hr by spectrophotometer based microplate reader method
Prothrombin [8] = target: T1, Prothrombin; experiment: Inhibition of thrombin (unknown origin) assessed as chromogenic substrate using CS-10(38) as substrate incubated for 1 hr by spectrophotometer based microplate reader method
Homo sapiens [9] = species: Homo sapiens; experiment: Selectivity index, ratio of IC50 for coagulation factor Xa (unknown origin) to IC50 for coagulation factor XIa (unknown origin)
Homo sapiens [10] = species: Homo sapiens; experiment: Selectivity index, ratio of IC50 for coagulation factor XIIa (unknown origin) to IC50 for coagulation factor XIa (unknown origin)
Homo sapiens [11] = species: Homo sapiens; experiment: Selectivity index, ratio of IC50 for coagulation factor IXa (unknown origin) to IC50 for coagulation factor XIa (unknown origin)
Homo sapiens [12] = species: Homo sapiens; experiment: Selectivity index, ratio of IC50 for coagulation factor VIIa (unknown origin) to IC50 for coagulation factor XIa (unknown origin)
Homo sapiens [13] = species: Homo sapiens; experiment: Selectivity index, ratio of IC50 for trypsin (unknown origin) to IC50 for coagulation factor XIa (unknown origin)
Homo sapiens [14] = species: Homo sapiens; experiment: Selectivity index, ratio of IC50 for thrombin (unknown origin) to IC50 for coagulation factor XIa (unknown origin)
Coagulation factor XI [15] = target: T2, Coagulation factor XI; conditions: dose 50.0 nM, time 1.0 hrs

T2 sequence (P03951 19-387 limits assumed): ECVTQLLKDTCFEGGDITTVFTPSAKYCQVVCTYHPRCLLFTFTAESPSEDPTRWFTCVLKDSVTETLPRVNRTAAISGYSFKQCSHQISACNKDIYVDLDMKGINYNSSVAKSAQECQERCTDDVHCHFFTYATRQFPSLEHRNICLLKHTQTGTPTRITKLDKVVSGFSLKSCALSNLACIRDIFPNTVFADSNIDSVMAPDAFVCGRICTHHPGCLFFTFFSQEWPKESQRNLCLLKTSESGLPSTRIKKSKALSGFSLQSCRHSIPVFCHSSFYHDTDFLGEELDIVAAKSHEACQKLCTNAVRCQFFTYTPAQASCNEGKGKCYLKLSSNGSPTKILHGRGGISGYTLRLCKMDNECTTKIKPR
T2 sequence (P03951 388-625 limits assumed): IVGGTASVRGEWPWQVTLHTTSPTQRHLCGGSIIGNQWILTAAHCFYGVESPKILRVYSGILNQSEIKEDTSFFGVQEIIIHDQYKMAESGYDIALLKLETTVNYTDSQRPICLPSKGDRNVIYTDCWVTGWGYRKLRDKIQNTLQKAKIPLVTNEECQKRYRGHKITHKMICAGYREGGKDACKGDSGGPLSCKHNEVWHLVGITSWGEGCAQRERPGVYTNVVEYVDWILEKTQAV
Coagulation factor X, sequence (P00742 41-179 limits assumed): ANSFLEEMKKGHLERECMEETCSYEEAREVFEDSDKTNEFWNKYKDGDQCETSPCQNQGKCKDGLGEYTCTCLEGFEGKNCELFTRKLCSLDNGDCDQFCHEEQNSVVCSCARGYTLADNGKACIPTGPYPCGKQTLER
Coagulation factor X, sequence (P00742 235-488 limits assumed): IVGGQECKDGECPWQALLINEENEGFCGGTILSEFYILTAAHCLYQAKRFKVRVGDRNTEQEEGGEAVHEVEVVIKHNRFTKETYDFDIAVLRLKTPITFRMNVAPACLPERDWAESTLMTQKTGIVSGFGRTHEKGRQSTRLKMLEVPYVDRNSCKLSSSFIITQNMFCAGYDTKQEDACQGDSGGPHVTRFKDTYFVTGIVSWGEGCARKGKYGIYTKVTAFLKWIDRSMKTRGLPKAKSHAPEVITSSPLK
Plasma kallikrein, sequence (P03952 20-390 limits assumed): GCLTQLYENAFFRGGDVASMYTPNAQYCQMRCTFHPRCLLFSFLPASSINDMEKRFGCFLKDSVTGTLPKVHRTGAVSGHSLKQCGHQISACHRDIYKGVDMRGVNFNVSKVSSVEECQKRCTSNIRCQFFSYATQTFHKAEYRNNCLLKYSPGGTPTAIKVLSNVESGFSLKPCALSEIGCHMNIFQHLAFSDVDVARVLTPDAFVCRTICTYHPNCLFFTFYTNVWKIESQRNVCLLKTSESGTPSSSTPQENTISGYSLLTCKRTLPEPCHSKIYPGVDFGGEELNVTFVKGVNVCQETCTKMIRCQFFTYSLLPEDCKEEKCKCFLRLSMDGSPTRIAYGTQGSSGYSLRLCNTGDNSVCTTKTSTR
Plasma kallikrein, sequence (P03952 391-638 limits assumed): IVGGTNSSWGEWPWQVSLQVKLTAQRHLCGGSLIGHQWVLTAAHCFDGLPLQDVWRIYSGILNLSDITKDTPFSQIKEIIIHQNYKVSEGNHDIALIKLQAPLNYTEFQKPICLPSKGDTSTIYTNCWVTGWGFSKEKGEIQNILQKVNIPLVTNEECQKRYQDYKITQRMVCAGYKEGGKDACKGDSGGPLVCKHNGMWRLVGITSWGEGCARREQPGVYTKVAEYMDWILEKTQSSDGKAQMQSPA
Serine protease 1 (Homo sapiens), sequence (P07477 whole entry): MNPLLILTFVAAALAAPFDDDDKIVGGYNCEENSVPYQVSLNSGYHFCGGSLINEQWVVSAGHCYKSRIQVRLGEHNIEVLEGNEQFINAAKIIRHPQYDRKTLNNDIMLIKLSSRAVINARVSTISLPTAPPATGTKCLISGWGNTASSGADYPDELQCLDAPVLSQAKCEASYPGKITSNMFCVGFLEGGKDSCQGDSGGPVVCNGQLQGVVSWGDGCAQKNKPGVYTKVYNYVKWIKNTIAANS
Coagulation factor IX (Homo sapiens), sequence (P00740 47-191 limits assumed): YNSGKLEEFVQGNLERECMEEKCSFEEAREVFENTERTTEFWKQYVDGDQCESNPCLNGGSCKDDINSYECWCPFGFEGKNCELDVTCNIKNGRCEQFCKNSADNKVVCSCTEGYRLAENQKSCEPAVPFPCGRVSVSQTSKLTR
Coagulation factor IX (Homo sapiens), sequence (P00740 227-461 limits assumed): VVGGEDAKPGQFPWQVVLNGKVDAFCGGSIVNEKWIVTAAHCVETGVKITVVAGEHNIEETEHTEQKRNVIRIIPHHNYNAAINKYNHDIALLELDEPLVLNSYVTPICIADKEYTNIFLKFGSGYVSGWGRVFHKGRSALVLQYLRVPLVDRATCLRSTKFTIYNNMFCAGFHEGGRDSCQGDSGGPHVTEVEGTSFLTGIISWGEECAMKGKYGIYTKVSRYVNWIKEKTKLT

inhibition (Prothrombin [1]): inactive
pIC50 (Coagulation factor XI [2]): 7.73
pIC50 (Plasma kallikrein): 4.85
Ratio IC50 (Homo sapiens [3]): 756
pIC50 (Coagulation factor X): 3.01
inhibition [4]: inactive
inhibition [5]: inactive
inhibition [6]: inactive
inhibition [7]: inactive
inhibition (Prothrombin [8]): inactive
Ratio IC50 (Homo sapiens [9]): > 5000
Ratio IC50 (Homo sapiens [10]): > 5000
Ratio IC50 (Homo sapiens [11]): > 5000
Ratio IC50 (Homo sapiens [12]): > 5000
Ratio IC50 (Homo sapiens [13]): > 5000
Ratio IC50 (Homo sapiens [14]): > 5000
inhibition (Coagulation factor XI [15]): 52.3%
SMILES: O=C(/C=C/c1cc(Cl)ccc1-n1cnnn1)N[C@@H](CC(=O)N1CCSCC1)C(=O)Nc1ccc(C(=O)O)cc1
